Assay results: ChEMBL document CHEMBL6115017, “Discovery of DFV890, a Potent Sulfonimidamide-Containing NLRP3 Inflammasome Inhibitor” (J Med Chem, 2025)
Values after ≈ are worked out from the molar mass of the structure shown.

Tests used:
[1] = Fraction unbound in human plasma; format: ADME, cell-free
[2] = Half life in Sprague-Dawley rat at 5 mg/kg, po by LC-MS analysis; format: ADME, organism-based; conditions: in vivo
[3] = Metabolic stability in rat hepatocytes assessed as intrinsic clearance measured per 10^6 cells; format: ADME, cell-based, Hepatocyte; conditions: read-out: CLH
[4] = Fraction unbound in Sprague-Dawley rat plasma; format: ADME, cell-free
[5] = Metabolic stability in human hepatocytes assessed as intrinsic clearance measured per 10^6 cells; format: ADME, cell-based, Hepatocyte; conditions: read-out: CLH
[6] = Volume of distribution at steady state in Sprague-Dawley rat at 5 mg/kg, po by LC-MS analysis; format: ADME, organism-based; conditions: in vivo
[7] = Clearance in Sprague-Dawley rat at 5 mg/kg, po by LC-MS analysis; format: ADME, organism-based; conditions: in vivo
[8] = Oral bioavailability in Sprague-Dawley rat at 5 mg/kg administered through oral gavage by LC-MS analysis; format: ADME, organism-based; conditions: in vivo
[9] = Solubility of the compound in PBS at pH 7.4; format: physicochemical

CC(C)(O)c1ncc([S@](N)(=O)=NC(=O)Nc2c3c(c(F)c4c2CCC4)CCC3)s1
fraction unbound [1]: 0.003
half-life [2]: 3.07 h
hepatocyte CLint [3]: 3.7 µL/min/1e6 cells
fraction unbound [4]: 0.007
hepatocyte CLint [5]: 3 µL/min/1e6 cells
Vdss [6]: 0.178 L/kg
CL/F [7]: 1.08 mL/min/kg
bioavailability [8]: 68%
solubility [9]: 8 µg/mL (≈ 18.2 µM)

CC(C)(O)c1csc([S@](N)(=O)=NC(=O)Nc2c3c(cc4c2CCC4)CCC3)c1
fraction unbound [1]: 0.009
half-life [2]: 2.91 h
hepatocyte CLint [3]: 2.5 µL/min/1e6 cells
fraction unbound [4]: 0.011
hepatocyte CLint [5]: 3.6 µL/min/1e6 cells
Vdss [6]: 0.191 L/kg
CL/F [7]: 1.15 mL/min/kg
bioavailability [8]: 50%
solubility [9]: 24 µg/mL (≈ 57.2 µM)

CC(C)(O)c1nc([S@](N)(=O)=NC(=O)Nc2c3c(cc4c2CCC4)CCC3)cs1
fraction unbound [1]: 0.057
half-life [2]: 2.36 h
hepatocyte CLint [3]: 5.4 µL/min/1e6 cells
fraction unbound [4]: 0.05
hepatocyte CLint [5]: 1.6 µL/min/1e6 cells
Vdss [6]: 0.541 L/kg
CL/F [7]: 11.1 mL/min/kg
bioavailability [8]: 100%

CC(C)(O)c1csc([S@](N)(=O)=NC(=O)Nc2c3c(cc4c2CCC4)CCC3)n1
fraction unbound [1]: 0.014
half-life [2]: 4.13 h
hepatocyte CLint [3]: 5.2 µL/min/1e6 cells
fraction unbound [4]: 0.02
hepatocyte CLint [5]: 4.2 µL/min/1e6 cells
Vdss [6]: 0.353 L/kg
CL/F [7]: 3.21 mL/min/kg
bioavailability [8]: 70%

CC(C)(O)c1coc(S(=O)(=O)NC(=O)Nc2c3c(cc4c2CCC4)CCC3)c1
fraction unbound [1]: 0.007
half-life [2]: 0.635 h
fraction unbound [4]: 0.013
Vdss [6]: 0.271 L/kg
CL/F [7]: 15.9 mL/min/kg
bioavailability [8]: 47%
solubility [9]: 1080 µg/mL (≈ 2680 µM)

CC(C)(O)c1cnc([S@](N)(=O)=NC(=O)Nc2c3c(cc4c2CCC4)CCC3)s1
fraction unbound [1]: 0.009
half-life [2]: 2.6 h
hepatocyte CLint [3]: 5.2 µL/min/1e6 cells
hepatocyte CLint [5]: 0.63 µL/min/1e6 cells
Vdss [6]: 0.29 L/kg
CL/F [7]: 3.7 mL/min/kg
